Measured values reported in ChEMBL document CHEMBL1154836, “Synthesis of glycoside derivatives of hydroxyanthraquinone with ability to dissolve and inhibit formation of crystals of calcium oxalate. Potential compounds in kidney stone therapy” (Eur J Med Chem, 2010).

How the values were obtained:
L929 = test: Cytotoxicity against mouse L929 cells at 500 ug/ml; format: cell-based
[1] = Induction of calcium oxalate dissolution assessed as increase in calcium concentration after 5 days by flame photometry relative to untreated control; format: physicochemical; settings: 120 h
[2] = Induction of surgically removed human kidney stone dissolution assessed as increase in calcium concentration after 5 days by flame photometry relative to untreated control; format: functional
A549 = test: Cytotoxicity against human A549 cells at 500 ug/ml; format: cell-based
[3] = Inhibition of calcium oxalate crystal formation assessed as change of shift in titration end point by conductometric titration; format: functional

Row | Activity [1] [%] | SMILES | Activity (L929) | Activity [2] [%] | Activity (A549) | Activity [3] [µL]
1 | 513 | O=C1c2ccc(O[C@@H]3O[C@H](CO)[C@H](O)[C@H](O)[C@H]3O)c(O)c2C(=O)c2c(O)ccc(O)c21 | – | 1667 | – | 170
2 | 432 | O=C1c2ccccc2C(=O)c2c1ccc(O[C@@H]1O[C@H](CO)[C@H](O)[C@H](O)[C@H]1O)c2O | Non-toxic | 1500 | Non-toxic | 70
3 | 1513 | O=C1c2ccc(O[C@@H]3O[C@H](CO)[C@@H](O)[C@H](O)[C@H]3O)c(O)c2C(=O)c2c(O)ccc(O)c21 | – | 4833 | – | 180

More lines, now with the values behind:

Row | SMILES | Activity [1] [%] | Activity (L929) | Activity [2] [%] | Activity (A549) | Activity [3] [µL]
4 | O=C1c2ccccc2C(=O)c2c1ccc(O[C@@H]1O[C@H](CO)[C@@H](O)[C@H](O)[C@H]1O)c2O | 595 | Non-toxic | 1583 | Non-toxic | 80
5 | O=C1c2ccc(O)c(O)c2C(=O)c2c(O)ccc(O)c21 [QUINALIZARIN] | 1324 | – | 4167 | – | 90
6 | O=C1c2ccccc2C(=O)c2c1ccc(O)c2O [ATHRAQUINONES A] | 246 | Toxic | 717 | Toxic | 40
7 | O=C1c2ccccc2C(=O)c2c(O[C@@H]3O[C@H](CO)[C@@H](O)[C@H](O)[C@H]3O)ccc(O)c21 | 541 | Non-toxic | 2000 | Non-toxic | 60
8 | O=C1c2ccccc2C(=O)c2c(O)ccc(O)c21 [QUINIZARIN] | 205 | Toxic | 833 | Toxic | 30
